This passage reports % of inhibition and % of control results from ChEMBL document CHEMBL5465560, “Selectivity Literature for EUbOPEN Chemogenomic Library” (2024).

In assay [1] the target is T1, Serine/threonine-protein kinase Nek3 (Homo sapiens) (UniProt P51956).
T1 sequence (whole entry): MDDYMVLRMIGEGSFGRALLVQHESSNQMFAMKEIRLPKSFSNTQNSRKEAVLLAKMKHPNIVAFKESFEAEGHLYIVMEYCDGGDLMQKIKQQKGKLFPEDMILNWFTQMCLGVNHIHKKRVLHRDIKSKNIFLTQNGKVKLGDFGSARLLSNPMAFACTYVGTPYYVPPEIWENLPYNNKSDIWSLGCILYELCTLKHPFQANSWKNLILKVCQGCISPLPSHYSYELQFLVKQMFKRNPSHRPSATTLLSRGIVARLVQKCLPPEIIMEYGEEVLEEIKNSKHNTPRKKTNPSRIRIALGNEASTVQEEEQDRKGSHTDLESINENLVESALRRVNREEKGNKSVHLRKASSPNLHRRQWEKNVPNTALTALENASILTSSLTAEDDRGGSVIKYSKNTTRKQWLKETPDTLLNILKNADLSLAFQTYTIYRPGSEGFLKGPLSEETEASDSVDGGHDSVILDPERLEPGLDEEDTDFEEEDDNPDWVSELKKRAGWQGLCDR
Put plainly: Selectivity interaction (Upstate Kinase Profiler service (Millipore)) EUB0000056c NEK3. The note with it: at 1 µM.

Assay [2] addresses Phosphatidylinositol 4,5-bisphosphate 3-kinase catalytic subunit alpha isoform (Homo sapiens) (UniProt P42336). Put plainly: (§1) Selectivity interaction (Ambit KINOMEscan and KiNATiv profiling in Jurkat cells) EUB0000090b PIK3CA. The note with it: at 1 µM. It counts as cell-based.
Assay [3] has as its system Phosphatidylinositol 4,5-bisphosphate 3-kinase catalytic subunit alpha isoform (Homo sapiens), P42336 [H1047L]. The assay is described as §1. The note with it: at 1 µM. Format: cell-based.
Assay [4] has as its system Phosphatidylinositol 4,5-bisphosphate 3-kinase catalytic subunit alpha isoform (Homo sapiens), P42336 [I800L]. The assay is described as §1. Format: cell-based. The note with it: at 1 µM.
For assay [5], the system named is Phosphatidylinositol 4,5-bisphosphate 3-kinase catalytic subunit alpha isoform (Homo sapiens), P42336 [E545A]. The description is as §1. It counts as cell-based. To be noted: at 1 µM.
Sequence of Phosphatidylinositol 4,5-bisphosphate 3-kinase catalytic subunit alpha isoform (Homo sapiens), P42336 [E545A] (P42336 whole entry E545A, canonical isoform): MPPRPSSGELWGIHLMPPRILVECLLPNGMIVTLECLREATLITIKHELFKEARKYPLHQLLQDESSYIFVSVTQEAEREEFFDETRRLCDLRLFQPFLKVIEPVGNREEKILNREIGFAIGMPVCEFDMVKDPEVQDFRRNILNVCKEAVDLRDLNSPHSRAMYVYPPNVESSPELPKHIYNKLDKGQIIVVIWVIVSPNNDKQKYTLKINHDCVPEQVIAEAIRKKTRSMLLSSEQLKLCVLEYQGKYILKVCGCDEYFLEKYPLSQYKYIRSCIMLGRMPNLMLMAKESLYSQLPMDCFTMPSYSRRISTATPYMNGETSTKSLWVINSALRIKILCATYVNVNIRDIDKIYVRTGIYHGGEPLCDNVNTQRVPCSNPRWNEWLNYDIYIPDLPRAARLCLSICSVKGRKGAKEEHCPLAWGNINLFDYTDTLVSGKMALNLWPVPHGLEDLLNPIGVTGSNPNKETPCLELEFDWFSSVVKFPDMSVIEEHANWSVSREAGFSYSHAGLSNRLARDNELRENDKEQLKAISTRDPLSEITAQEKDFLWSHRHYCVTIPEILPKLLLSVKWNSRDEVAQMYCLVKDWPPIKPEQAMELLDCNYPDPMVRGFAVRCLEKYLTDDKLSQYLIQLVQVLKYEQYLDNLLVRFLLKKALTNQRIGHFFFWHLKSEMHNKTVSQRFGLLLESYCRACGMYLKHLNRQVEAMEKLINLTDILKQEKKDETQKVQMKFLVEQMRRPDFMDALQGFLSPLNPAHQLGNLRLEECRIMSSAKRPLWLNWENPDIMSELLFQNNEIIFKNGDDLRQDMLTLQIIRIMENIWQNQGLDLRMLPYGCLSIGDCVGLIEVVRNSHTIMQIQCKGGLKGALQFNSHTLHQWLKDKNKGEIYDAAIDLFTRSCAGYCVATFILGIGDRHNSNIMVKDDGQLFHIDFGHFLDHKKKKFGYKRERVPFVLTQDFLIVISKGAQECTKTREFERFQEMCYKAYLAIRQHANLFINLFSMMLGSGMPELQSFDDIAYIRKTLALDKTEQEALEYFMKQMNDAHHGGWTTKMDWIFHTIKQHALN
The subject of assay [6] is Phosphatidylinositol 4,5-bisphosphate 3-kinase catalytic subunit alpha isoform (Homo sapiens), P42336 [E542K]. Described as §1. It counts as cell-based. The note with it: at 1 µM.
The subject of assay [7] is Phosphatidylinositol 4,5-bisphosphate 3-kinase catalytic subunit alpha isoform (Homo sapiens), P42336 [C420R]. Described as §1. It counts as cell-based. The note with it: at 1 µM.
The test system of assay [8] is Phosphatidylinositol 4,5-bisphosphate 3-kinase catalytic subunit alpha isoform (Homo sapiens), P42336 [M1043I]. The description is as §1. The note with it: at 1 µM. It counts as cell-based.
Sequence of Phosphatidylinositol 4,5-bisphosphate 3-kinase catalytic subunit alpha isoform (Homo sapiens), P42336 [M1043I] (P42336 whole entry M1043I, canonical isoform): as the sequence (P42336 whole entry E545A, canonical isoform) above, with A545E, M1043I counted along it
The subject of assay [9] is Phosphatidylinositol 4,5-bisphosphate 3-kinase catalytic subunit alpha isoform (Homo sapiens), P42336 [H1047Y]. The assay is described as §1. The note with it: at 1 µM. It counts as cell-based.
Assay [10] has as its system Phosphatidylinositol 4,5-bisphosphate 3-kinase catalytic subunit alpha isoform (Homo sapiens), P42336 [Q546K]. The description is as §1. Format: cell-based. The note with it: at 1 µM.
Assay [11] relates to Phosphatidylinositol 4,5-bisphosphate 3-kinase catalytic subunit alpha isoform (Homo sapiens), P42336 [E545K]. Described as §1. The note with it: at 1 µM. It counts as cell-based.
The target in assay [12] is Serine/threonine-protein kinase 33 (Homo sapiens) (UniProt Q9BYT3). To be noted: at 10 µM.
Sequence of Serine/threonine-protein kinase 33 (Homo sapiens) (Q9BYT3 whole entry, looked up): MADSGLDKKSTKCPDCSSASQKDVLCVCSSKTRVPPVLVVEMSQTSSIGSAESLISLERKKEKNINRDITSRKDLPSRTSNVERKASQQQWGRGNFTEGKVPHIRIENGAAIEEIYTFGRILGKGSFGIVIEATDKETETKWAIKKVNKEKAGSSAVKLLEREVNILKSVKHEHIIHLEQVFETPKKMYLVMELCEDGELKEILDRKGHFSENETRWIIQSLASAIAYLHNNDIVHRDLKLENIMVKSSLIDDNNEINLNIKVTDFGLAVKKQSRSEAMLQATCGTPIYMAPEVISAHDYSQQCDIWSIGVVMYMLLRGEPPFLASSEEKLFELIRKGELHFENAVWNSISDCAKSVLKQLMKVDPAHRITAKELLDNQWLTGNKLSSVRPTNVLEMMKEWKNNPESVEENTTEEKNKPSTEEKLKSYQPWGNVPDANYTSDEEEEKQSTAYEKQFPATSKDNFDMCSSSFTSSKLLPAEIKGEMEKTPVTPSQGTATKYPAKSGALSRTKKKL
Assay [13] addresses Mitogen-activated protein kinase 14 (Homo sapiens, UniProt Q16539). The note with it: at 10 µM.
Assay [14] deals with T2, 3-phosphoinositide-dependent protein kinase 1 (Homo sapiens) (UniProt O15530).
T2 sequence (whole entry): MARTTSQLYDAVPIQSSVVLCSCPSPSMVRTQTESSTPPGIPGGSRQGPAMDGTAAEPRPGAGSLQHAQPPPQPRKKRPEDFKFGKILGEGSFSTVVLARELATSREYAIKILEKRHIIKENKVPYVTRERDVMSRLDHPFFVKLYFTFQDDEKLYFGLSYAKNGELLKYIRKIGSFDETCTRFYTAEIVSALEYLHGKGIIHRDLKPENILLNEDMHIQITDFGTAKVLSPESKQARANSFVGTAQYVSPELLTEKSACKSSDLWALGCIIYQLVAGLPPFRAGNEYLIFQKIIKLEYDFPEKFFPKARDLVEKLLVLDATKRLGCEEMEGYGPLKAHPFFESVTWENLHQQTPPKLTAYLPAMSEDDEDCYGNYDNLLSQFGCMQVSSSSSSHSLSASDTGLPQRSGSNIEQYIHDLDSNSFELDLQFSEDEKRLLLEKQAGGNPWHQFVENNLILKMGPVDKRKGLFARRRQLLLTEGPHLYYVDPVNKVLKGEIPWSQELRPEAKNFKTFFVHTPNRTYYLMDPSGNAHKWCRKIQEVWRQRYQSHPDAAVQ
Put plainly: Selectivity interaction (KinomeScan (DiscoverX)) EUB0000695a PDPK1. To be noted: at 100 nM.

Assay [15] deals with T3, Ephrin type-A receptor 1 (Homo sapiens) (UniProt P21709).
T3 sequence (whole entry): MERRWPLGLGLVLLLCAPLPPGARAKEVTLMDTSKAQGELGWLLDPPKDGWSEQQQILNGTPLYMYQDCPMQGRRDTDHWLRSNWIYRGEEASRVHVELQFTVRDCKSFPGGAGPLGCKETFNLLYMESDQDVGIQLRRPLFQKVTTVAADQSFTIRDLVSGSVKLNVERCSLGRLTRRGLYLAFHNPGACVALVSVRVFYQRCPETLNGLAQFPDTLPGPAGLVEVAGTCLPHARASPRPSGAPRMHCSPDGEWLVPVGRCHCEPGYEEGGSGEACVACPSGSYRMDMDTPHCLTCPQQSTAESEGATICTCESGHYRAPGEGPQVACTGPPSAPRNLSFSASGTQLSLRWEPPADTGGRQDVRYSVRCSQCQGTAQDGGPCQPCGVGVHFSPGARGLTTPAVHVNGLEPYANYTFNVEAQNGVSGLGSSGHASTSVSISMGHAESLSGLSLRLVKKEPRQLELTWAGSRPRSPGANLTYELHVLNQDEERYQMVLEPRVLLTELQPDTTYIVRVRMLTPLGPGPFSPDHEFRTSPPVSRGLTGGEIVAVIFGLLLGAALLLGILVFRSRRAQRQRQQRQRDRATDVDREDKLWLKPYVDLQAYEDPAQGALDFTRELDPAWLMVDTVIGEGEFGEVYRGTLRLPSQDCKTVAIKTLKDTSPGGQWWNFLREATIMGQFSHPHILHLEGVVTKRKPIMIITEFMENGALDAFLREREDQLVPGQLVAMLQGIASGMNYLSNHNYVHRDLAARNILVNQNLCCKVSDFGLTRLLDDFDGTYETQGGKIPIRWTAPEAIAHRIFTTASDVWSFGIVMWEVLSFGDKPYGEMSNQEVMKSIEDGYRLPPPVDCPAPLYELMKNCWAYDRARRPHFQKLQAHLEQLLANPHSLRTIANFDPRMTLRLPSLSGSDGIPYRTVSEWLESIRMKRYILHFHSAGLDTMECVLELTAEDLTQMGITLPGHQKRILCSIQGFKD
Put plainly: Selectivity interaction (KinomeScan (DiscoverX)) EUB0000045b EPHA1.

For assay [16], the target named is Tyrosine-protein kinase JAK1 (Homo sapiens, UniProt P23458). Put plainly: Selectivity interaction (SelectScreen profiling (Invitrogen)) EUB0000607a JAK1. The note with it: at 2 µM.
Assay [17] concerns the target Cyclin-dependent kinase 16 (Homo sapiens) (UniProt Q00536). Put plainly: Selectivity interaction (KinomeScan (DiscoverX)) EUB0001619a CDK16. To be noted: at 1 µM.

The structures appear in SMILES notation.

Sequence of Mitogen-activated protein kinase 14 (Q16539 whole entry): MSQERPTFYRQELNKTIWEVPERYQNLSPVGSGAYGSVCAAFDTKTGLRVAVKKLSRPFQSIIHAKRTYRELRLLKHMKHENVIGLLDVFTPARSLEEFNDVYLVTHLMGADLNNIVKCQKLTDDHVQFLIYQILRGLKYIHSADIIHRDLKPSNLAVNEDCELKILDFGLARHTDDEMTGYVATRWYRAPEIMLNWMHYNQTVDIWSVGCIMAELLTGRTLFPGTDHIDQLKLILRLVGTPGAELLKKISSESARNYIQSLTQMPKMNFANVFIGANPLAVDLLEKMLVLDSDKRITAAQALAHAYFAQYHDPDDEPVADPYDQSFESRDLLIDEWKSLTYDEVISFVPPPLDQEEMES
Sequence of Phosphatidylinositol 4,5-bisphosphate 3-kinase catalytic subunit alpha isoform (Homo sapiens), P42336 [H1047L] (P42336 whole entry H1047L, canonical isoform): as the sequence (P42336 whole entry E545A, canonical isoform) above, with A545E, H1047L counted along it
Sequence of Cyclin-dependent kinase 16 (Homo sapiens) (Q00536 whole entry): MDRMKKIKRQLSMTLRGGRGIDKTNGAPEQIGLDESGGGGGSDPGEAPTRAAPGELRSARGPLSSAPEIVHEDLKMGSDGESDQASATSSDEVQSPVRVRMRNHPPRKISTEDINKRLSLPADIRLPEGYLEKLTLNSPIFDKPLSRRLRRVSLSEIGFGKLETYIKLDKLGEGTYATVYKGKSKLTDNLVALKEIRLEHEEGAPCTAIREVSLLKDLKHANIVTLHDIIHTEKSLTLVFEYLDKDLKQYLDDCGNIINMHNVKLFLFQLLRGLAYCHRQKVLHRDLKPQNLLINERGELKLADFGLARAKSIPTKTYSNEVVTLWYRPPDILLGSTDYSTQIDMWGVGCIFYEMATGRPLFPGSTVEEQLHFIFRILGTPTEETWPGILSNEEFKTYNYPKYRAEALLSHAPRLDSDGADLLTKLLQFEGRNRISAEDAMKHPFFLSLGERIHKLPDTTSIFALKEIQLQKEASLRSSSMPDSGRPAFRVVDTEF

In [1], `Cc1ccc(-c2ccc3c(ccc4sc5c(c43)NC[C@@H](C)NC5=O)n2)cn1` showed a % of inhibition of 6%.
For the compound `CN(C)C/C=C/C(=O)Nc1ccc(C(=O)N2CCCC(Nc3ncc(Cl)c(-c4c[nH]c5ccccc45)n3)C2)cc1` (stereo not drawn), the % of control stood at 92% in [2]; 100% in assay [3]; 89% in assay [4]; 83% in assay [5]; 93% in assay [6]; 87% in assay [7]. Further, the % of control in assay [8] amounted to 100%; in assay [9], 95%; in assay [10], 98%; in assay [11] it was 99%.
Regarding `CCN(CC)CCCCNc1ncc2cc(-c3cc(OC)cc(OC)c3)c(NC(=O)NC(C)(C)C)nc2n1`, the % of control in assay [12] and in [13] was 100% in each case.
As to `Cc1cc(F)c(C(=O)Nc2cccc(-c3nncn3C(C)C)n2)cc1-n1cnc(C2CC2)c1`, the % of control in assay [14] was 82%.
`C=CC(=O)Nc1cc(-n2c(=O)ccc3cnc4ccc(-c5ccc(NS(C)(=O)=O)cc5)cc4c32)ccc1C`: the values for the % of control in assay [15] (at 1 µM) and in [15] (at 10 µM) were 92% and 100%, respectively.
As to `CNC(=O)Nc1ccc(-c2nc(N3CC4CCC(C3)O4)c3cnn(C4CCC5(CC4)OCCO5)c3n2)cc1`, the % of inhibition in assay [16] was found to be 5%.
As for `N#Cc1cccc(-c2c[nH]c3ncnc(N4CCOCC4)c23)c1`, the % of control in assay [17] is 90%.
